In the NIST ThermoML archive (doi:10.1016/j.jct.2006.10.008):
± gives the expanded uncertainty stated by the source.

Legend:
[1] = excess molar enthalpy (molar enthalpy of mixing); xn = mol fraction of the nth substance listed; conditions: 298.15 K, 101 kPa, Liquid, Calvet calorimetry
[2] = xn = mol fraction of the nth substance listed; conditions: 298.15 K, 101 kPa, Liquid

CCCOC=O [propyl methanoate] + ClCCCCCCCl
Conditions | excess molar enthalpy [kcal/mol] | mass density [kg/m3]
[1], x1 = 0.083 | 0.0159 ± 0.000311 | –
[1], x1 = 0.1781 | 0.0287 ± 0.000406 | –
[1], x1 = 0.2715 | 0.0378 ± 0.000478 | –
[1], x1 = 0.3516 | 0.0422 ± 0.000502 | –
[1], x1 = 0.4261 | 0.0428 ± 0.000526 | –
[1], x1 = 0.5 | 0.0403 ± 0.000502 | –
[1], x1 = 0.5567 | 0.0351 ± 0.000454 | –
[1], x1 = 0.6558 | 0.0259 ± 0.000382 | –
[1], x1 = 0.7057 | 0.0203 ± 0.000335 | –
[1], x1 = 0.7584 | 0.015 ± 0.000311 | –
[1], x1 = 0.815 | 0.00994 ± 0.000263 | –
[1], x1 = 0.8628 | 0.00602 ± 0.000239 | –
[1], x1 = 0.91 | 0.00292 ± 0.000215 | –
[1], x1 = 0.9591 | 0.00213 ± 0.000215 | –
[2], x1 = 0.0918 | – | 1053.78 ± 0.43
[2], x1 = 0.1702 | – | 1044.88 ± 0.41
[2], x1 = 0.2469 | – | 1035.63 ± 0.39
[2], x1 = 0.3218 | – | 1026.16 ± 0.37
[2], x1 = 0.3877 | – | 1017.4 ± 0.36
[2], x1 = 0.4551 | – | 1008 ± 0.34
[2], x1 = 0.5167 | – | 998.95 ± 0.32
[2], x1 = 0.5747 | – | 990.06 ± 0.33
[2], x1 = 0.6303 | – | 981.16 ± 0.34
[2], x1 = 0.6844 | – | 972.09 ± 0.36
[2], x1 = 0.7354 | – | 963.2 ± 0.37
[2], x1 = 0.7849 | – | 954.19 ± 0.38
[2], x1 = 0.8768 | – | 936.4 ± 0.4
[2], x1 = 0.9196 | – | 927.69 ± 0.41
[2], x1 = 0.9603 | – | 919.06 ± 0.42

ClCCCCCCCl [1,6-dichlorohexane] + COC=O
Conditions | excess molar enthalpy [kcal/mol] | mass density [kg/m3]
[1], x2 = 0.0953 | 0.058 ± 0.000645 | –
[1], x2 = 0.2199 | 0.1098 ± 0.00105 | –
[1], x2 = 0.3324 | 0.1456 ± 0.00131 | –
[1], x2 = 0.4307 | 0.1664 ± 0.00148 | –
[1], x2 = 0.5033 | 0.1742 ± 0.00153 | –
[1], x2 = 0.5596 | 0.1754 ± 0.00155 | –
[1], x2 = 0.5977 | 0.1763 ± 0.00155 | –
[1], x2 = 0.6601 | 0.173 ± 0.00153 | –
[1], x2 = 0.7167 | 0.1668 ± 0.00148 | –
[1], x2 = 0.7749 | 0.1558 ± 0.00139 | –
[1], x2 = 0.8296 | 0.1374 ± 0.00127 | –
[1], x2 = 0.8855 | 0.113 ± 0.00108 | –
[1], x2 = 0.935 | 0.0781 ± 0.00086 | –
[1], x2 = 0.974 | 0.0416 ± 0.000621 | –
[2], x2 = 0.1205 | – | 1057.33 ± 0.44
[2], x2 = 0.2277 | – | 1050.93 ± 0.42
[2], x2 = 0.3234 | – | 1044.52 ± 0.41
[2], x2 = 0.4146 | – | 1037.85 ± 0.4
[2], x2 = 0.4858 | – | 1032.03 ± 0.39
[2], x2 = 0.555 | – | 1025.73 ± 0.37
[2], x2 = 0.6169 | – | 1019.68 ± 0.36
[2], x2 = 0.6713 | – | 1013.87 ± 0.35
[2], x2 = 0.7244 | – | 1007.71 ± 0.34
[2], x2 = 0.7696 | – | 1002.16 ± 0.33
[2], x2 = 0.811 | – | 996.6 ± 0.33
[2], x2 = 0.8479 | – | 991.36 ± 0.33
[2], x2 = 0.8838 | – | 986.03 ± 0.34
[2], x2 = 0.9163 | – | 980.96 ± 0.35
[2], x2 = 0.9461 | – | 976 ± 0.35
[2], x2 = 0.9737 | – | 970.7 ± 0.36

ClCCCCl [1,3-dichloropropane] + CCCCOC=O
Conditions | excess molar enthalpy [kcal/mol] | mass density [kg/m3]
[1], x2 = 0.0521 | -0.00691 ± 0.000239 | –
[1], x2 = 0.1142 | -0.0126 ± 0.000287 | –
[1], x2 = 0.1765 | -0.0207 ± 0.000359 | –
[1], x2 = 0.2379 | -0.0303 ± 0.00043 | –
[1], x2 = 0.2982 | -0.0385 ± 0.000478 | –
[1], x2 = 0.3557 | -0.049 ± 0.000574 | –
[1], x2 = 0.4108 | -0.0593 ± 0.000645 | –
[1], x2 = 0.4602 | -0.0664 ± 0.000693 | –
[1], x2 = 0.5057 | -0.0712 ± 0.000741 | –
[1], x2 = 0.5508 | -0.0716 ± 0.000741 | –
[1], x2 = 0.6114 | -0.069 ± 0.000717 | –
[1], x2 = 0.6872 | -0.0624 ± 0.000669 | –
[1], x2 = 0.7608 | -0.0527 ± 0.000598 | –
[1], x2 = 0.8457 | -0.0376 ± 0.000478 | –
[1], x2 = 0.9261 | -0.0206 ± 0.000359 | –
[2], x2 = 0.0505 | – | 1161.51 ± 0.64
[2], x2 = 0.101 | – | 1144.56 ± 0.61
[2], x2 = 0.1523 | – | 1127.68 ± 0.58
[2], x2 = 0.2044 | – | 1110.9 ± 0.54
[2], x2 = 0.2581 | – | 1094 ± 0.51
[2], x2 = 0.313 | – | 1077.09 ± 0.48
[2], x2 = 0.3693 | – | 1060.1 ± 0.44
[2], x2 = 0.4847 | – | 1026.45 ± 0.38
[2], x2 = 0.5445 | – | 1009.59 ± 0.34
[2], x2 = 0.6675 | – | 976.01 ± 0.35
[2], x2 = 0.7309 | – | 959.34 ± 0.37
[2], x2 = 0.7964 | – | 942.5 ± 0.39
[2], x2 = 0.862 | – | 925.98 ± 0.41
[2], x2 = 0.9296 | – | 909.27 ± 0.43
